Experimental data published in patent US20160052898A1, “NOVEL COMPOUNDS” (BAYER PHARMA AKTIENGESELLSCHAFT, priority 2013, published 2016).
Structures can show the parent of a compound that is named as a salt.

Experiments:
[1] = test system: HCT116 FOP control reporter cell line; assay: HCT116 FOP control vector reporter assay (non-functional TCF elements); assay type: cell-based; settings: Homo sapiens, HCT-116, 36 h, HCT116 FOP control reporter cells, luciferase expression, 36 hours incubation, 50 μM to 15 nM; read-out: HCT116 FOPFlash IC50
Procedure: (§1) In a parallel approach, HCT116 cells were cotransfected with the FOP control vector and pcDNA3. The FOP vector is identical to the TOP construct, but it contains instead of functional TCF elements a randomized, non-functional sequence. For this transfection a stable transfected cell line was generated as well.
(§2) In preparation of the assay, the two cell lines were plated 24 hrs before at 10000 cells per well of a 384 micro titre plate (MTP) in 30 μL growth medium. Selective inhibitory activity for small molecules on the mutated Wnt pathway was determined after parallel incubation of both (TOP and FOP) HCT116 reporter cell lines with a compound dilution series from 50 μM to 15 nM in steps of 3.16-fold dilutions in CAFTY buffer (130 mM NaCl, 5 mM KCl, 20 mM HEPES, 1 mM MgCl2, 5 mM NaHCO3, pH 7.4) containing 2 mM Ca^2+ and 0.01% BSA. The compounds were thereby serially prediluted in 100% DMSO and thereafter in addition 50 fold into the CAFTY compound dilution buffer (described above). From this dilution 10 μL were added to the cells in 30 μL growth medium and incubated for 36 hours at 37° C. and 5% CO2. Thereafter luciferase assay buffer (1:1 mixture of luciferase substrate buffer (20 mM Tricine, 2.67 mM MgSO4, 0.1 mM EDTA, 4 mM DTT, 270 μM Coenzyme A, 470 μM Luciferin, 530 μM ATP, ph adjusted to pH 7.8 with a sufficient volume of 5M NaOH) and Triton buffer (30 mL Triton X-100, 115 mL glycerol, 308 mg Dithiothreitol, 4.45 g Na2HPO4.2 H2O, 3.03 g Tris.HCL, ad 1 l H20, pH 7.8) was added as equal volume to the compound solution on the cells to determine luciferase expression as a measure of Wnt signaling activity in a luminometer.

[2] = test system: constitutive active colorectal cancer cell (CRC) Wnt pathway; assay: HCT116 Super TopFlash cellular reporter assay (constitutive active Wnt pathway); assay type: cell-based; settings: Homo sapiens, HCT-116, 36 h, HCT116 TOP reporter cells, luciferase expression, 36 hours incubation, 50 μM to 15 nM
Procedure: In order to discover and characterize small molecules which inhibit the constitutive active colorectal cancer cell (CRC) Wnt pathway, a cellular reporter assay was employed. The corresponding assay cell was generated by transfection of the colorectal cancer cell line HCT116 (ATCC, #CCL-247) with the Super TopFlash vector (Morin, Science 275, 1997, 1787-1790; Molenaar et al., Cell 86 (3), 1996, 391-399). The HCT116 cell line is cultivated at 37° C. and 5% CO2 in DMEM/F-12 (Life Technologies, #11320-074), supplemented with 2 mM glutamine, 20 mM HEPES, 1.4 mM pyruvate, 0.15% Na-bicarbonate and 10% foetal bovine serum (GIBCO, #10270), this cancer cell line is pathophysiological relevant since it carries a deletion of position S45 in the β-catenin gene, leading to constitutive active Wnt signaling. Stable transfectants were generated by cotransfection with pcDNA3 and selection of stable transfected cells with 1 mg/ml G418.
as §1, §2

| IC50 [1] [nM] | IC50 [2] [nM] | Compound |
| --- | --- | --- |
| 9800 | 210 | CC(C)(C)c1ccc(NC(=O)c2ccc(-c3ccccc3)cc2)cc1NC(=O)CN1CCOCC1 [Example 67, N-{4-tert-butyl-3-[(morpholin-4-ylacetyl)amino]phenyl}biphenyl-4-carboxamide] |
| ≥ 50000 | 513 | O=C(CN1CCOCC1)Nc1cc(NC(=O)c2ccc(-c3ccccc3)cc2)ccc1Br [Example 68, N-{4-bromo-3-[(morpholin-4-ylacetyl)amino]phenyl}biphenyl-4-carboxamide] |
| 9300 | 810 | O=C(CN1CCOCC1)Nc1cc(NC(=O)c2ccc(-c3ccccc3)cc2)ccc1Cl [Example 69, N-{4-chloro-3-[(morpholin-4-ylacetyl)amino]phenyl}biphenyl-4-carboxamide] |
| ≥ 50000 | 1350 | Cc1ccc(NC(=O)c2ccc(-c3ccccc3)cc2)cc1NC(=O)CN1CCOCC1 [Example 70, N-{4-methyl-3-[(morpholin-4-ylacetyl)amino]phenyl}biphenyl-4-carboxamide] |
| ≥ 50000 | 2030 | O=C(CN1CCOCC1)Nc1cc(NC(=O)c2ccc(-c3ccccc3)cc2)ccc1O [Example 84, N-{4-hydroxy-3-[(morpholin-4-ylacetyl)amino]phenyl}biphenyl-4-carboxamide] |
| ≥ 50000 | 262 | COCCCOc1ccc(C(=O)Nc2ccc(-c3ccccc3)cc2)cc1NC(=O)CN1CCOCC1 [Example 91, N-(biphenyl-4-yl)-4-(3-methoxypropoxy)-3-[(morpholin-4-ylacetyl)amino]benzamide] |
| ≥ 50000 | 448 | COCCOc1ccc(C(=O)Nc2ccc(-c3ccccc3)cc2)cc1NC(=O)CN1CCOCC1 [Example 92, N-(biphenyl-4-yl)-4-(2-methoxyethoxy)-3-[(morpholin-4-ylacetyl)amino]benzamide] |
| ≥ 50000 | 194 | O=C(CN1CCOCC1)Nc1cc(C(=O)Nc2ccc(-c3ccccc3)cc2)ccc1OCCO [Example 93, N-(biphenyl-4-yl)-4-(2-hydroxyethoxy)-3-[(morpholin-4-ylacetyl)amino]benzamide] |
| 7800 | 552 | CN(C)CCNC(=O)c1ccc(C(=O)Nc2ccc(-c3ccccc3)cc2)cc1NC(=O)CN1CCOCC1 [Example 105, formic acid —N^4-(biphenyl-4-yl)-N^1-[2-(dimethylamino)ethyl]-2-[(morpholin-4-ylacetyl)amino]terephthalamide (1:1)] |
| 6500 | 366 | C[S+]([O-])c1ccc(C(=O)Nc2ccc(-c3ccccc3)cc2)cc1NC(=O)CN1CCOCC1 (stereo not drawn) [Example 110, N-(biphenyl-4-yl)-4-(methylsulfinyl)-3-[(morpholin-4-ylacetyl)amino]benzamide] |
| ≥ 50000 | 162 | CS(=O)(=O)c1ccc(C(=O)Nc2ccc(-c3ccccc3)cc2)cc1NC(=O)CN1CCOCC1 [Example 111, N-(biphenyl-4-yl)-4-(methylsulfonyl)-3-[(morpholin-4-ylacetyl)amino]benzamide] |
| ≥ 50000 | 132 | NC(=O)c1ccc(C(=O)Nc2ccc(-c3ccccc3)cc2)cc1NC(=O)CN1CCOCC1 [Example 116, N^4-(Biphenyl-4-yl)-2-[(morpholin-4-ylacetyl)amino]terephthalamide] |
| ≥ 50000 | 153 | CC(C)(O)c1ccc(C(=O)Nc2ccc(-c3ccccc3)cc2)cc1NC(=O)CN1CCOCC1 [Example 117, N-(biphenyl-4-yl)-4-(2-hydroxypropan-2-yl)-3-[(morpholin-4-ylacetyl)amino]benzamide] |

Second part, the molecule before the results:

| Compound | IC50 [1] [nM] | IC50 [2] [nM] |
| --- | --- | --- |
| C[C@H](C(=O)Nc1cc(NC(=O)c2ccc(-c3ccccc3)cc2)ccc1OC(F)(F)F)N1CC2CCC(C1)O2 [Example 60, N-[3-{[(2R)-2-(8-oxa-3-azabicyclo[3.2.1]oct-3-yl)propanoyl]amino}-4-(trifluoromethoxy)phenyl]biphenyl-4-carboxamide] | ≥ 50000 | 582 |
| C[C@H](C(=O)Nc1cc(NC(=O)c2ccc(-c3ccccc3)cc2)ccc1OC(F)(F)F)N1CCOCC1 [Example 63, N-[3-{[(2R)-2-(morpholin-4-yl)propanoyl]amino}-4-(trifluoromethoxy)phenyl]biphenyl-4-carboxamide] | ≥ 50000 | 265 |
| COc1ccc(NC(=O)c2ccc(-c3ccccc3)cc2)cc1N(Cc1ccccc1)C(=O)CN1CCOCC1 [Example 64, N-{3-[benzyl(morpholin-4-ylacetyl)amino]-4-methoxyphenyl}biphenyl-4-carboxamide] | 48000 | 3500 |
| COc1ccc(NC(=O)c2ccc(-c3ccccc3)cc2)cc1N(C)C(=O)CN1CCOCC1 [Example 65, N-{4-methoxy-3-[methyl(morpholin-4-ylacetyl)amino]phenyl}biphenyl-4-carboxamide] | 28000 | 2200 |
| COC(=O)c1cccc(-c2ccc(C(=O)Nc3ccc(OC)c(NC(=O)CN4CCOCC4)c3)cc2)c1 [Example 77, methyl 4′-({4-methoxy-3-[(morpholin-4-ylacetyl)amino]phenyl}carbamoyl)biphenyl-3-carboxylate] | ≥ 50000 | 3950 |
| COc1ccc(NC(=O)c2ccc(-c3cccc(C(F)(F)F)c3)cc2)cc1NC(=O)CN1CCOCC1 [Example 78, N-{4-methoxy-3-[(morpholin-4-ylacetyl)amino]phenyl}-3′-(trifluoromethyl)biphenyl-4-carboxamide] | ≥ 50000 | 2900 |
| COCCCOCc1ccc(C(=O)Nc2ccc(-c3ccccc3)cc2)cc1NC(=O)CN1CCOCC1 [Example 87, N-(biphenyl-4-yl)-4-[(3-methoxypropoxy)methyl]-3-[(morpholin-4-ylacetyl)amino]benzamide] | 34000 | 196 |
| NCCCOc1ccc(C(=O)Nc2ccc(-c3ccccc3)cc2)cc1NC(=O)C1(N2CCOCC2)CC1 [Example 89, 4-(3-aminopropoxy)-N-(biphenyl-4-yl)-3-({[1-(morpholin-4-yl)cyclopropyl]carbonyl}amino)benzamide hydrochloride (1:1)] | 20200 | 676 |
| CCC(C(=O)Nc1cc(C(=O)Nc2ccc(-c3ccccc3)cc2)ccc1OC)N1CCOCC1 (stereo not drawn) [Example 99, N-(biphenyl-4-yl)-4-methoxy-3-{[2-(morpholin-4-yl)butanoyl]amino}benzamide] | ≥ 50000 | 380 |
| O=C(CN1CCOCC1)Nc1cc(C(=O)Nc2ccc(-c3ccccc3)cc2)ccc1C(=O)NCCCN1CCCC1 [Example 103, N^4-(biphenyl-4-yl)-2-[(morpholin-4-ylacetyl)amino]-N-[3-(pyrrolidin-1-yl)propyl]terephthalamide] | 7400 | 302 |
| CN(C)CCCNC(=O)c1ccc(C(=O)Nc2ccc(-c3ccccc3)cc2)cc1NC(=O)CN1CCOCC1 [Example 104, N^4-(biphenyl-4-yl)-N^1-[3-(dimethylamino)propyl]-2-[(morpholin-4-ylacetyl)amino]terephthalamide] | 7400 | 534 |
| O=C(Nc1ccc(-c2ccccc2)cc1)c1ccc(OC2CC2)c(NC(=O)C2(N3CCOCC3)CC2)c1 [Example 113, N-(biphenyl-4-yl)-4-(cyclopropyloxy)-3-({[1-(morpholin-4-yl)cyclopropyl]carbonyl}amino)benzamide] | ≥ 50000 | 159 |
| COc1ccc(NC(=O)c2ccc(-c3ccc(NC(C)=O)cc3)cc2)cc1NC(=O)CN1CCOCC1 [Example 118, 4′-acetamido-N-{4-methoxy-3-[(morpholin-4-ylacetyl)amino]phenyl}biphenyl-4-carboxamide] | ≥ 50000 | 960 |
| CNc1ccc(-c2ccc(C(=O)Nc3ccc(OC)c(NC(=O)CN4CCOCC4)c3)cc2)cc1 [Example 119, N-{4-methoxy-3-[(morpholin-4-ylacetyl)amino]phenyl}-4′-(methylamino)biphenyl-4-carboxamide] | ≥ 50000 | 260 |
